# Read-outs that look alike come from different tables or passages of the source.
# Columns and labels:
# HCT116 cells = test: Growth inhibition assay (MTS); assay type: cell-based; conditions: Homo sapiens, HCT116 cells, 48 hours treatment, MTS, read-out: Growth Inhibition (GI50, uM) HCT116
# Procedure: (§1) SW480 or HCT116 cells were placed into 96 well microplate (10^4cells/well) and incubated for 24 hours at 37° C. 20 μl of [3-(4,5-dimethylthiazol-2-yl)-5-(3-carboxyphenyl)-2-(4-sulfophenyl)-2H-tetrazolium, inner salt](MTS) solution (Promega) was added into each well and the absorbance after 2 hour incubation at 37° C. (negative control) was read. And then, the cells were treated with TCF4 compound at various concentrations for 48 hours. 20 μl of MTS solution (Promega) was added into each well and incubated for 2 hour at 37° C. Cell viability was measured by reading the absorbance at 490 nm using a microplate reader (Molecular device) and cytotoxicity of a compound at each concentration was calculated.
# as §1, with “a test” for “TCF4”
# SW480 cells = test: Growth inhibition assay (MTS); assay type: cell-based; conditions: Homo sapiens, SW480 cells, 48 hours treatment, MTS, read-out: Growth Inhibition (GI50, uM) SW480
# Procedure: as §1
# as §1, with “a test” for “TCF4”
SMILES,"GI50 (HCT116 cells; HCT-116, 48 h, Table 5)","GI50 (SW480 cells; SW480, 48 h, Table 5)",other results
C=CCN1CC(=O)N2[C@@H](CC3(O)C=CC(=O)C=C3)C(=O)N(Cc3ccc(F)cc3F)C[C@@H]2N1C(=O)NCc1ccccc1 [Compound 151],8.6 ± 0.9 µM,11.2 ± 1.3 µM,
CCN1CC(=O)N2[C@@H](Cc3ccc(O)cc3)C(=O)N(Cc3cccc(N4CCOCC4)c3)C[C@@H]2N1C(=O)NCc1ccccc1 [Compound 95],7.1 ± 1.2 µM,16.2 ± 2.6 µM,
C#CCN1CC(=O)N2[C@@H](Cc3ccc(O)cc3)C(=O)N(Cc3ccc4c(c3)OCCN4C)C[C@@H]2N1C(=O)NCc1ccccc1 [Compound 118],23.2 ± 2.8 µM,21.2 ± 1.5 µM,
C=CCN1CC(=O)N2C(Cc3ccc(O)cc3)C(=O)N(Cc3ccc(F)cc3F)CC2N1C(=O)NCc1ccccc1 (centres unmarked) [Compound 140],1.7 ± 0.1 µM,1.6 ± 0.5 µM,
CN(C)c1cc(F)ccc1CN1C[C@H]2N(C(=O)CN(C)N2C(=O)NCc2ccccc2)[C@@H](Cc2ccc(O)cc2)C1=O [Compound 27],1.13 µM,11.7 µM,
CN1CC(=O)N2[C@@H](Cc3ccc(O)cc3)C(=O)N(Cc3ccc(F)cc3F)C[C@@H]2N1C(=O)NCc1ccc(F)cc1 [Compound 170],8.6 ± 0.8 µM,8.9 ± 0.8 µM,
C=CCN1CC(=O)N2[C@@H](Cc3ccc(O)cc3)C(=O)N(Cc3ccc(Cl)c(N(C)C)c3)C[C@@H]2N1C(=O)NCc1ccccc1 [Compound 101],0.9 ± 0.1 µM,1.1 ± 0.07 µM,
C=CCN1CC(=O)N2[C@@H](Cc3ccc(O)cc3)C(=O)N(Cc3cccc4c3OCCN4C)C[C@@H]2N1C(=O)NCc1ccccc1 [Compound 128],1 ± 0.03 µM,0.9 ± 0.1 µM,
C=CCN1CC(=O)N2[C@@H](CN([C@H](C)c3ccccc3)C(=O)[C@@H]2Cc2ccc(O)cc2)N1C(=O)NCc1ccccc1 [Compound 154],0.7 ± 0.2 µM,0.7 ± 0.2 µM,
C=CCN1CC(=O)N2[C@@H](CN([C@H](C)c3cccc4cccnc34)C(=O)[C@@H]2Cc2ccc(O)cc2)N1C(=O)NCc1ccccc1 [Compound 161],4.1 ± 0.5 µM,4.2 ± 0.4 µM,
C=CC[C@@H]1CC(=O)N2[C@H](CN(Cc3cccc4scnc34)C(=O)[C@@H]2Cc2ccc(O)cc2)N1C(=O)NCc1ccccc1,,,"GI50 (HCT116 cells; HCT-116, 48 h, Example 21): 1.4 µM; GI50 (SW480 cells; SW480, 48 h, Example 21): 1.2 µM"
CN1CC(=O)N2[C@@H](Cc3ccc(O)cc3)C(=O)N(Cc3ccccc3SC(F)(F)F)C[C@@H]2N1C(=O)NCc1ccccc1 [Compound 6],3.91 µM,3.96 µM,
CC(C)N(C)c1cccc([C@@H](C)N2C[C@H]3N(C(=O)CN(C)N3C(=O)NCc3ccccc3)[C@@H](Cc3ccc(O)cc3)C2=O)c1 [Compound 42],10.8 µM,24.7 µM,
C=CCN1CC(=O)N2[C@@H](Cc3ccc(OP(=O)(O)O)cc3)C(=O)N(Cc3cccc4scnc34)C[C@@H]2N1C(=O)NCc1ccccc1 [Compound 167],,,"GI50 (HCT116 cells; HCT-116, Table 5): 0.2 ± 0.02 µM; GI50 (SW480 cells; Table 5): 0.3 ± 0.02 µM"
CC(C)N(C)c1cccc(Cl)c1CN1C[C@H]2N(C(=O)CN(C)N2C(=O)NCc2ccccc2)[C@@H](Cc2ccc(O)cc2)C1=O [Compound 32],16.9 ± 1.9 µM,47.2 ± 12.1 µM,
C=CCN1CC(=O)N2[C@@H](Cc3ccc(O)cc3)C(=O)N(Cc3cccc4sc(C(=O)OCC)nc34)C[C@@H]2N1C(=O)NCc1ccccc1 [Compound 195],3 ± 0.3 µM,3.1 ± 0.4 µM,
C#CCN1CC(=O)N2[C@@H](Cc3ccc(O)cc3)C(=O)N(Cc3ccc4ncsc4c3)C[C@@H]2N1C(=O)NCc1ccccc1 [Compound 113],3.7 ± 0.6 µM,6.8 ± 1.4 µM,
CN1CC(=O)N2[C@@H](Cc3ccc(O)cc3)C(=O)N(Cc3ccc4ccccc4c3)C[C@@H]2N1C(=O)NCc1ccccc1 [Compound 9],1.92 µM,2.36 µM,
C=CCN1CC(=O)N2[C@@H](Cc3ccc(O)cc3)C(=O)N(Cc3ccc(C)c(N4CCOCC4)c3)C[C@@H]2N1C(=O)NCc1ccccc1 [Compound 105],2.1 ± 0.3 µM,2.8 ± 0.2 µM,

# From patent publication US7671054B1, “Reverse-turn mimetics and method relating thereto” (Choongwae Pharma Corporation, priority 2001, dated 2010)
